This series deals with intraperitoneal macrophages. Nature of the series: Fluorescence-labeled cells among intraperitoneal macrophages after oral administration of fluorescence-conjugated peptides to normal mice. The class given is in vivo, mouse. To be noted: measured after 48 and 72 hours, FIG. 10. On the procedure: Furthermore, peptides 1, 2, and 4 were orally administered to normal mice after conjugation with each different fluorescence, and the frequency of fluorescence-labeled cells was measured among intraperitoneal macrophages after 48 and 72 hours.

These results are taken from patent US20230125749A1, “COMPOSITION CONTAINING PEPTIDE OR PEPTIDE COMPOUND AS ACTIVE INGREDIENT, AND MEDICAL USE THEREFOR” (AJOU UNIVERSITY INDUSTRY-ACADEMIC COOPERATION FOUNDATION, priority 2019, published 2023).

Turning to LICPEKYCNKVHT [P1], the “time for which the fluorescence-labeled peptide was maintained among intraperitoneal macrophages” value is given as “up to 72 hours”.
